Laboratory results: patent US11477982B2, “2-amino-5-oxyalkyl-pyrimidine derivatives and their use for controlling undesired plant growth” (Bayer CropScience Aktiengesellschaft, priority 2017, dated 2022)

What was measured:
Format in all cases: in vivo
[1] = system: AMARE: Amaranthus retroflexus; assay: Post-emergence herbicidal effect
How it was run: (§1)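 Weeds grown from seed in sandy loam in the greenhouse were sprayed at the one-leaf stage, 2 to 3 weeks after sowing. Compounds formulated as WP or EC were applied as aqueous suspension or emulsion with 0.5% additive at 600 l/ha. Activity was scored visually after about 3 weeks versus untreated controls (100% = dead, 0% = as control).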

[2] = system: AVEFA: Avena fatua; assay: Post-emergence herbicidal effect
How it was run: as §1

[3] = system: AMARE: Amaranthus retroflexus; assay: Pre-emergence herbicidal effect; conditions: pre-emergence; dosage 320 g/ha
How it was run: (§2)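 Herbicide, as WP or EC in aqueous spray with 0.5% additive, applied at 600 l/ha to soil surface covering freshly sown seeds. Pots held in greenhouse about 3 weeks, then activity scored visually versus untreated controls as percent (0% = like control, 100% = plants dead).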

[4] = system: MATIN: Matricaria inodora; assay: Pre-emergence herbicidal effect; conditions: pre-emergence; dosage 320 g/ha
How it was run: as §2

[5] = system: POLCO: Polygonum convolvulus; assay: Pre-emergence herbicidal effect; conditions: dosage 320 g/ha
How it was run: as §2

[6] = system: VERPE: Veronica persica; assay: Pre-emergence herbicidal effect; conditions: dosage 320 g/ha
How it was run: as §2

[7] = system: VIOTR: Viola tricolor; assay: Pre-emergence herbicidal effect; conditions: dosage 320 g/ha
How it was run: as §2

[8] = system: ABUTH: Abutilon theophrasti; assay: Post-emergence herbicidal effect
How it was run: as §1

[9] = system: ECHCG: Echinochloa crus-galli; assay: Post-emergence herbicidal effect
How it was run: as §1

[10] = system: PHBPU: Ipomoea purpurea; assay: Post-emergence herbicidal effect
How it was run: as §1

[11] = system: POLCO: Polygonum convolvulus; assay: Post-emergence herbicidal effect
How it was run: as §1

[12] = system: SETVI: Setaria viridis; assay: Post-emergence herbicidal effect
How it was run: as §1

[13] = system: STEME: Stellaria media; assay: Post-emergence herbicidal effect
How it was run: as §1

[14] = system: VERPE: Veronica persica; assay: Post-emergence herbicidal effect; conditions: dosage 320 g/ha
How it was run: as §1

[15] = system: VIOTR: Viola tricolor; assay: Post-emergence herbicidal effect
How it was run: as §1

[16] = system: ABUTH: Abutilon theophrasti; assay: Pre-emergence herbicidal effect; conditions: dosage 320 g/ha
How it was run: as §2

[17] = system: ALOMY: Alopecurus myosuroides; assay: Pre-emergence herbicidal effect; conditions: pre-emergence; dosage 320 g/ha
How it was run: as §2

[18] = system: AVEFA: Avena fatua; assay: Pre-emergence herbicidal effect; conditions: dosage 320 g/ha
How it was run: as §2

[19] = system: ECHCG: Echinochloa crus-galli; assay: Pre-emergence herbicidal effect; conditions: pre-emergence; dosage 320 g/ha
How it was run: as §2

[20] = system: HORMU: Hordeum murinum; assay: Pre-emergence herbicidal effect; conditions: pre-emergence; dosage 320 g/ha
How it was run: as §2

[21] = system: LOLRI: Lolium rigidum; assay: Pre-emergence herbicidal effect; conditions: dosage 320 g/ha
How it was run: as §2

[22] = system: PHBPU: Ipomoea purpurea; assay: Pre-emergence herbicidal effect; conditions: dosage 320 g/ha
How it was run: as §2

[23] = system: SETVI: Setaria viridis; assay: Pre-emergence herbicidal effect; conditions: pre-emergence; dosage 320 g/ha
How it was run: as §2

[24] = system: STEME: Stellaria media; assay: Pre-emergence herbicidal effect; conditions: pre-emergence; dosage 320 g/ha
How it was run: as §2

[25] = system: ALOMY: Alopecurus myosuroides; assay: Post-emergence herbicidal effect
How it was run: as §1

[26] = system: LOLRI: Lolium rigidum; assay: Post-emergence herbicidal effect
How it was run: as §1

[27] = system: MATIN: Matricaria inodora; assay: Post-emergence herbicidal effect
How it was run: as §1

SMILES | Herbicidal action against AMARE ([1]; dosage 80 g/ha) [%] | Herbicidal action against AVEFA ([2]; dosage 80 g/ha) [%] | Herbicidal action against AVEFA ([2]; dosage 320 g/ha) [%] | Herbicidal action against AMARE [3] [%] | Herbicidal action against MATIN [4] [%] | Herbicidal action against POLCO [5] [%] | Herbicidal action against VERPE [6] [%] | Herbicidal action against VIOTR [7] [%] | Herbicidal action against ABUTH ([8]; dosage 320 g/ha) [%] | Herbicidal action against AMARE ([1]; dosage 320 g/ha) [%] | Herbicidal action against ECHCG ([9]; dosage 80 g/ha) [%] | Herbicidal action against ECHCG ([9]; dosage 320 g/ha) [%] | Herbicidal action against POLCO ([11]; dosage 320 g/ha) [%] | Herbicidal action against SETVI ([12]; dosage 320 g/ha) [%] | Herbicidal action against STEME ([13]; dosage 80 g/ha) [%] | Herbicidal action against STEME ([13]; dosage 320 g/ha) [%] | Herbicidal action against VERPE [14] [%] | Herbicidal action against VIOTR ([15]; dosage 320 g/ha) [%] | other results
Cc1ccc2c(c1)[C@H](Nc1ncc([C@H](C)O)c(N)n1)[C@@H](C)C2 (racemic) [drawing 11, reference compound] | 80 | 0 | 50 |  |  |  |  |  |  |  |  |  |  |  |  |  |  |  | 
Cc1ccc2c(c1)[C@H](Nc1ncc(C(C)O)cn1)[C@@H](C)C2 (stereo partly shown) [Example 1.2] | 100 | 60 | 80 | 100 | 100 | 100 | 100 | 100 | 80 | 100 | 40 | 100 | 90 | 90 | 90 | 100 | 90 | 80 | Herbicidal action against PHBPU ([10]; dosage 80 g/ha): 40%; Herbicidal action against POLCO ([11]; dosage 80 g/ha): 90%; Herbicidal action against SETVI ([12]; dosage 80 g/ha): 90%
CCc1ccc2c(c1)[C@H](Nc1ncc(C(C)(C)O)c(C)n1)CC2 [Example 1.57] |  |  |  | 100 | 100 | 100 | 100 | 100 | 90 | 100 |  | 100 |  | 90 |  | 90 | 90 | 90 | Herbicidal action against ABUTH [16]: 100%; Herbicidal action against ALOMY [17]: 100%; Herbicidal action against AVEFA [18]: 100%; Herbicidal action against ECHCG [19]: 100%; Herbicidal action against HORMU [20]: 100%; Herbicidal action against LOLRI [21]: 100%; Herbicidal action against PHBPU [22]: 100%; Herbicidal action against SETVI [23]: 100%; Herbicidal action against STEME [24]: 100%
C=C(C)COC(C)(C)c1cnc(N[C@H]2c3cc(C)ccc3C[C@@H]2C)nc1 [Example 1.63] |  |  |  | 100 | 100 | 100 | 100 | 100 | 90 | 100 |  | 100 |  | 100 |  | 90 | 90 | 90 | Herbicidal action against ABUTH [16]: 100%; Herbicidal action against ALOMY [17]: 100%; Herbicidal action against AVEFA [18]: 90%; Herbicidal action against ECHCG [19]: 100%; Herbicidal action against HORMU [20]: 90%; Herbicidal action against LOLRI [21]: 100%; Herbicidal action against PHBPU [22]: 100%; Herbicidal action against SETVI [23]: 100%; Herbicidal action against STEME [24]: 100%
Cc1ccc2c(c1)[C@H](Nc1ncc(C(C)(C)O)c(N)n1)[C@@H](C)C2 [drawing 9, reference compound] |  | 0 | 0 |  |  |  |  |  |  | 70 | 0 | 10 |  | 30 |  |  |  |  | Herbicidal action against ABUTH ([8]; dosage 80 g/ha): 30%; Herbicidal action against ALOMY ([25]; dosage 80 g/ha): 0%; Herbicidal action against ALOMY ([25]; dosage 320 g/ha): 10%; Herbicidal action against LOLRI ([26]; dosage 80 g/ha): 0%; Herbicidal action against LOLRI ([26]; dosage 320 g/ha): 0%
Cc1ccc2c(c1)[C@H](Nc1ncc(C(C)(C)O)c(N)n1)[C@@H](C)C2 [drawing 10, reference compound] | 60 |  | 0 |  |  |  |  |  |  | 70 | 0 | 10 |  | 30 |  |  |  |  | Herbicidal action against ABUTH ([8]; dosage 80 g/ha): 30%; Herbicidal action against ALOMY ([25]; dosage 80 g/ha): 0%; Herbicidal action against ALOMY ([25]; dosage 320 g/ha): 10%; Herbicidal action against LOLRI ([26]; dosage 80 g/ha): 0%; Herbicidal action against LOLRI ([26]; dosage 320 g/ha): 0%; Herbicidal action against SETVI ([12]; dosage 80 g/ha): 0%
Cc1ccc2c(c1)[C@H](Nc1ncc(C(C)(C)O)c(N)n1)[C@@H](C)C2 [drawing 12, reference compound] |  |  |  |  |  |  |  |  |  |  |  |  | 0 |  | 0 | 0 |  |  | Herbicidal action against MATIN ([27]; dosage 80 g/ha): 0%; Herbicidal action against MATIN ([27]; dosage 320 g/ha): 60%; Herbicidal action against PHBPU ([10]; dosage 320 g/ha): 50%; Herbicidal action against POLCO ([11]; dosage 80 g/ha): 0%; Herbicidal action against VIOTR ([15]; dosage 80 g/ha): 60%
Cc1ccc2c(c1)[C@H](Nc1ncc(C(C)(C)O)c(N)n1)[C@@H](C)C2 [drawing 13, reference compound] |  |  |  |  |  |  |  |  |  |  |  |  | 0 |  | 0 | 0 |  |  | Herbicidal action against MATIN ([27]; dosage 80 g/ha): 0%; Herbicidal action against PHBPU ([10]; dosage 320 g/ha): 50%; Herbicidal action against VIOTR ([15]; dosage 80 g/ha): 60%
